Paper PMC8609307 (2021)

Assays:
[1] = test system: EC-88 WT, Cy3-Cy5 dual-labeled (RNA, riboswitch, azido-uridine analog at 14) GUUCUCAACGGGGUGCCACGCGUACGCGUGCGCUGAGAAAAUACCCGUCGAACCUGAUCCGGAUAACGCCGGCGAAGGGAUUUGAGGC; assay: smFRET; settings: 20 mM MgCl2, 20 mM NaCl; 1 mM TPP
[2] = test system: EC-88 G37C, Cy3-Cy5 dual-labeled (RNA, riboswitch, azido-uridine analog at 14) GUUCUCAACGGGGUGCCACGCGUACGCGUGCGCUGACAAAAUACCCGUCGAACCUGAUCCGGAUAACGCCGGCGAAGGGAUUUGAGGC; assay: smFRET; settings: 20 mM MgCl2, 20 mM NaCl; tested at 1 mM TPP
[3] = test system: EC-117, Cy3-Cy5 dual-labeled (RNA, riboswitch, azido-uridine analog at 14) GUUCUCAACGGGGUGCCACGCGUACGCGUGCGCUGAGAAAAUACCCGUCGAACCUGAUCCGGAUAACGCCGGCGAAGGGAUUUGAGGCUCCUUCUCAAGUCCUUUGCCACUCUUUUU; assay: smFRET; settings: 20 mM MgCl2, 20 mM NaCl; 1 mM and 10 µM TPP
[4] = test system: EC-136, Cy3-Cy5 dual-labeled (RNA, riboswitch, azido-uridine analog at 14) GUUCUCAACGGGGUGCCACGCGUACGCGUGCGCUGAGAAAAUACCCGUCGAACCUGAUCCGGAUAACGCCGGCGAAGGGAUUUGAGGCUCCUUCUCAAGUCCUUUGCCACUCUUUUUUGAGGUGCAAAGUGUUAAA; assay: smFRET; settings: 20 mM MgCl2, 20 mM NaCl; poor folding at 1 mM TPP; none at 10 µM TPP
[5] = test system: EC-104, Cy3-Cy5 dual-labeled (RNA, riboswitch, azido-uridine analog at 14) GUUCUCAACGGGGUGCCACGCGUACGCGUGCGCUGAGAAAAUACCCGUCGAACCUGAUCCGGAUAACGCCGGCGAAGGGAUUUGAGGCUCCUUCUCAAGUCCUU; assay: smFRET; settings: 20 mM MgCl2, 20 mM NaCl; 1 mM TPP
[6] = test system: 117-nt transcript without RNAP, Cy3-Cy5 dual-labeled (RNA, riboswitch, azido-uridine analog at 14) GUUCUCAACGGGGUGCCACGCGUACGCGUGCGCUGAGAAAAUACCCGUCGAACCUGAUCCGGAUAACGCCGGCGAAGGGAUUUGAGGCUCCUUCUCAAGUCCUUUGCCACUCUUUUU; assay: smFRET; settings: 20 mM MgCl2, 20 mM NaCl; tested at 1 mM TPP; no RNAP
[7] = test system: EC-28, Cy3-Cy5 dual-labeled (RNA, riboswitch, azido-uridine analog at 14) GUUCUCAACGGGGUGCCACGCGUACGCG; assay: smFRET; settings: 20 mM MgCl2, 20 mM NaCl; tested at 1 mM TPP
[8] = test system: EC-83 nascent transcript (RNA, riboswitch) GUUCUCAACGGGGUGCCACGCGUACGCGUGCGCUGAGAAAAUACCCGUCGAACCUGAUCCGGAUAACGCCGGCGAAGGGAUUU; assay: RNase H cleavage protection; settings: 20 mM MgCl2, 20 mM NaCl (transcription buffer); stalled at pause site 83; Kswitch plot Figure 2D

Structure (SMILES): Cc1ncc(C[n+]2csc(CCOP(=O)(O)OP(=O)(O)O)c2C)c(N)n1
- binding [1]: yes
- binding [2]: no
- binding [3]: yes
- binding [4]: weak
- binding [5]: yes
- binding [6]: no
- binding [7]: no
- binding [8]: no
